# Experimental data published in article PMC6264316, “The Triterpenes 3β-Lup-20(29)-en-3-ol and 3β-Lup-20(29)-en-3-yl Acetate and the Carbohydrate 1,2,3,4,5,6-Hexa-O-acetyl-dulcitol as Photosynthesis Light Reactions Inhibitors” (Molecules, 2011).
# What was measured:
# [1] = target: T1, Mg2+-ATPase bound to thylakoid membrane (membrane-bound CF1; H+-ATPase) (Spinacia oleracea, UniProt P00825+P06450); experiment: light-triggered Mg2+-ATPase activity in thylakoids, released Pi; format: biochemical; conditions: read-out: Mg^2+-ATPase (%)
# T1 construct: gene atpB; with ATP synthase subunit a, chloroplastic; ATP synthase subunit b, chloroplastic; ATP synthase subunit b', chloroplastic; ATP synthase subunit c, chloroplastic
# Description: light-triggered Mg2+-ATPase activity in thylakoids, released Pi on Mg2+-ATPase bound to thylakoid membrane (membrane-bound CF1; H+-ATPase)
# [2] = target: T2, isolated CF1 (Ca2+-ATPase) (Spinacia oleracea, UniProt P00825+P06450); experiment: Ca2+-ATPase activity, released Pi; format: biochemical; conditions: read-out: Ca^2+-ATPase (%)
# T2 construct: gene atpB
# T2 sequence (P00825 whole entry): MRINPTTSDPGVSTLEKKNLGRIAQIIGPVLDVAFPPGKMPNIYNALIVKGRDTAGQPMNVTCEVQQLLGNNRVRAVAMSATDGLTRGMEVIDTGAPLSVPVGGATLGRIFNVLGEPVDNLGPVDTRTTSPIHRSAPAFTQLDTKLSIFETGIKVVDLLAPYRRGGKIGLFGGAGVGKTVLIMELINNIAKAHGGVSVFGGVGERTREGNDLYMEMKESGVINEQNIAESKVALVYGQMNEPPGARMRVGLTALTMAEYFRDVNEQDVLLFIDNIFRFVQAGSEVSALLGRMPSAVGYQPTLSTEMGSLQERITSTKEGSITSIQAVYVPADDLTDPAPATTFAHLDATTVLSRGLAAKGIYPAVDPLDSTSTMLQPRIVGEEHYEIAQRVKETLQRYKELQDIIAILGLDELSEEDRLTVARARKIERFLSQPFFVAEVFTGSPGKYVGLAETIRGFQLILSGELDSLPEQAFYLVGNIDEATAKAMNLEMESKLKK
# T2 sequence (P06450 whole entry): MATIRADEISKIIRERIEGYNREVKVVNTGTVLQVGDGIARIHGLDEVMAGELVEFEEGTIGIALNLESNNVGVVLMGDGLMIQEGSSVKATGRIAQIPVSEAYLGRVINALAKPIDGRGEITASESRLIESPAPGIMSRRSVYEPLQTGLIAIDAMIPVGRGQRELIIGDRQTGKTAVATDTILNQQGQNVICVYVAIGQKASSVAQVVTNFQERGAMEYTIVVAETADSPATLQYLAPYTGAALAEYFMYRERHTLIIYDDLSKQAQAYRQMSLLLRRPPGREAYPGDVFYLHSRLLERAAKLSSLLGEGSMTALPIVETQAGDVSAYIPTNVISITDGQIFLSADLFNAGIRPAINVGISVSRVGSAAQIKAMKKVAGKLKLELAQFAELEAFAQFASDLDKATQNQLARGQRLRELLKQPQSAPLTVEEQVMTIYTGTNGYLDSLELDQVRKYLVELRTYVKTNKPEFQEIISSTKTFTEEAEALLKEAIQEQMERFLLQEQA
# T2 sequence (P05435 42-364 partner): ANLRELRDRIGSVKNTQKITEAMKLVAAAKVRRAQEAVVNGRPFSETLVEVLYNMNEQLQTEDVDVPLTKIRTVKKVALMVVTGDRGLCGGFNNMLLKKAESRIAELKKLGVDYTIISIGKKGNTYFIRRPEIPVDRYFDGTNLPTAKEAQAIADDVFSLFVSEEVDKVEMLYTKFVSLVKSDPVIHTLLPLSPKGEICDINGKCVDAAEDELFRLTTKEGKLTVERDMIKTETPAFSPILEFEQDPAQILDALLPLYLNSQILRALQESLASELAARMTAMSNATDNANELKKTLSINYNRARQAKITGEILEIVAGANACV
# T2 sequence (P11402 71-257 partner): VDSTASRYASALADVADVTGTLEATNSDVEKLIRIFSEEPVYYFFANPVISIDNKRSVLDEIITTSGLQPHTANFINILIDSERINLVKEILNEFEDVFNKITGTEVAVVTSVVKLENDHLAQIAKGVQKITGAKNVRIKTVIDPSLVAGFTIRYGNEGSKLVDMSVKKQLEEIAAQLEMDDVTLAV
# T2 sequence (P00833 whole entry partner): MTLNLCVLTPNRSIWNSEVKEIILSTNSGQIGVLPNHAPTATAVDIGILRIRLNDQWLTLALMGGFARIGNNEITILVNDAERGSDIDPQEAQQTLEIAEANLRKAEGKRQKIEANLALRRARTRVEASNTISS
# Description: Ca2+-ATPase activity, released Pi on isolated CF1 (Ca2+-ATPase)
compound,measurement,setting,value
"C=C(C)[C@@H]1CC[C@]2(C)CC[C@]3(C)[C@H](CC[C@@H]4[C@@]5(C)CC[C@H](O)C(C)(C)[C@@H]5CC[C@]43C)[C@@H]12 [compound 1, 3β-Lup-20(29)-en-3-ol]",activity at 100 µM,[1],65%
same,activity at 300 µM,[2],179%
